What was measured:
[1] = target: T1, Kv7.2/3 K+ channels (M-channels) (Homo sapiens, UniProt O43525+O43526); assay: Whole-cell patch-clamp of recombinant Kv7.2/3 channels in CHO cells; type: cell-based; details: for V50 of Kv7.2/3 activation: n = 5; for fold increase in Kv7.2/3 current amplitude: step −90 to −50 mV
T1 construct: expressed in transfected cells; host or cells: CHO cells
Procedure: Chinese hamster ovary (CHO) cells were grown in Dulbecco's modified Eagle's medium (DMEM) supplemented with 2 mM glutamine, 10% fetal calf serum and antibiotics. Briefly, 40,000 cells seeded on poly-D-lysine-coated glass coverslips (13 mm diameter) in a 24-multiwell plate were transfected with pIRES-CD8 (0.5 µg) as a marker for transfection, and with Kv7.2 (0.5 µg) and Kv7.3 (0.5 µg). For electrophysiology, transfected cells were visualized approximately 40 hours following transfection, using anti-CD8 antibody-coated beads. Transfection was performed using Fugene 6 (Roche, Indianapolis IN, USA) according to the manufacturer's protocol.
Voltage-clamp recordings in CHO cells were performed, using the whole-cell configuration of the patch-clamp technique. Signals were amplified using an Axopatch 200B patch-clamp amplifier (Molecular Devices, Sunnyvale, CA), sampled at 2 kHz and filtered at 800 Hz via a 4-pole Bessel low pass filter. […] The patch pipettes were pulled from borosilicate glass (Warner Instrument Corp, USA) with a resistance of 2–5 MΩ. For K^+ current recordings in CHO cells, the intracellular pipette solution contained (in mM): 130 KCl, 1 MgCl2, 5 K2ATP, 5 EGTA, 10 HEPES, adjusted with KOH to pH 7.4 (290 mOsm). The extracellular solution contained (in mM): 140 NaCl, 4 KCl, 1.8 CaCl2, 1.2 MgCl2, 11 glucose, 5.5 HEPES, adjusted with NaOH to pH 7.4 (310 mOsm). Series resistances (3–13 MΩ) were compensated (75–90%) and periodically monitored.
Data analysis was performed using the Clampfit program (pClamp 9.2, Molecular Devices), Microsoft Excel (Microsoft) and Prism 4.0 (GraphPad). Chord conductance (G) was calculated by using the following equation: [drawing 1] where I corresponds to the current amplitude measured at the end of the pulse and Vrev, the calculated reversal potential. G was estimated at various test voltages V and then, normalized to a maximal conductance value, Gmax. Activation curves were fitted by one Boltzmann distribution: [drawing 2] where V50 is the voltage at which the current is half-activated and s is the slope factor. All data were expressed as mean±SEM. Statistically significant differences were assessed by Student's t-test. Analysis of sEPSCs and sIPSCs was done using the Clampfit program (pClamp 9.2, Molecular Devices) and included evaluation of the individual events as well as the average event amplitude and the integral of the event (total charge transfer).

[2] = test system: rat DRG neurons; assay: Current-clamp recording of cultured DRG neurons; type: cell-based; details: 25 µM
Procedure: For dorsal root ganglion (DRG) neuronal cultures, ganglia were dissected from 2–5 day-old Sprague-Dawley rats killed by decapitation. DRGs were placed in Hank's balanced saline solution (HBSS) and prepared by enzymatic dissociation. Briefly, after 30 min incubation in 5 mg/ml dispase, 2 mg/ml collagenase type 1A and 0.1 mg/ml DNase (Invitrogen/Gibco, Carlsbad, CA) in Ca^2+ and Mg^2+-free HBSS, the ganglia were mechanically triturated with a fire-polished glass Pasteur pipette. The ganglia were then centrifuged for 5 min at 80xg and resuspended in DMEM supplemented with 2 mM L-glutamine, 16.5 mM NaHCO3, 6 g/l glucose, 5 ml penicillin/streptomycin and 10% fetal calf serum. For electrophysiological recording, dissociated neurons were plated on 13 mm glass coverslips, previously coated with poly-D-lysine (1 mg/ml) and laminin (10 µg/ml) and used at 1–2 days in culture.
For current-clamp recordings in primary cultured neurons, the patch pipettes were filled with (in mM): 135 KCl, 1 K2ATP, 1 MgATP, 2 EGTA, 1.1 CaCl2, 5 glucose, 10 HEPES, adjusted with KOH at pH 7.4 (315 mOsm). The external solution contained (in mM): 150 NaCl, 2.5 KCl, 2 CaCl2, 2 MgCl2, 15 glucose, 10 HEPES, adjusted with NaOH at pH 7.4 (325 mOsm). Recordings were sampled at 5 kHz and filtered at 2 KHz via a 4-pole Bessel low pass filter. A liquid junction potential of about −15.6 mV was measured between the intracellular and saline solutions and corrected on-line. For evoking spike discharges, 75–200 pA square depolarizing current pulses were injected into neurons for 400 ms. For rheobase current measurements, 100–1100 pA square depolarizing current pulses were injected into neurons for 2 ms.

[3] = test system: MES-induced tonic hind limb extension; assay: Maximal electroshock seizure (MES) model; type: in vivo, mouse; details: Mus musculus, ip; mice, intraperitoneal, 30 min before electroshock (0.2 sec, 50 mA); read-out: ED50, protection against tonic extension caused by MES
Procedure: This test is generally thought to be a model of generalized tonic-clonic seizure in human.
The anti-convulsant effect was measured by the maximal electroshock seizure model (MES) in ICR mice as previously described. The procedures followed for experimentation and maintenance of the animals were approved by the animal research ethics committee of Tel Aviv University and in accordance with the Guide for the Care and Use of Laboratory Animals (1996, National Academy of Sciences, Washington DC). Briefly, maximal electroshock was induced in adult mice by means of two transcorneal electrodes delivering an alternative current of 50 mA at 60 Hz for 0.2 sec using rodent shocker (Hugo Sachs Electronik, type 221). […] The drugs dissolved in 0.9% saline were administered intraperitoneally 30 min before the electroshock was performed. Animals failing to show tonic hind limb extension were scored as protected and were expressed in percentage.

T1 sequence (O43526 whole entry): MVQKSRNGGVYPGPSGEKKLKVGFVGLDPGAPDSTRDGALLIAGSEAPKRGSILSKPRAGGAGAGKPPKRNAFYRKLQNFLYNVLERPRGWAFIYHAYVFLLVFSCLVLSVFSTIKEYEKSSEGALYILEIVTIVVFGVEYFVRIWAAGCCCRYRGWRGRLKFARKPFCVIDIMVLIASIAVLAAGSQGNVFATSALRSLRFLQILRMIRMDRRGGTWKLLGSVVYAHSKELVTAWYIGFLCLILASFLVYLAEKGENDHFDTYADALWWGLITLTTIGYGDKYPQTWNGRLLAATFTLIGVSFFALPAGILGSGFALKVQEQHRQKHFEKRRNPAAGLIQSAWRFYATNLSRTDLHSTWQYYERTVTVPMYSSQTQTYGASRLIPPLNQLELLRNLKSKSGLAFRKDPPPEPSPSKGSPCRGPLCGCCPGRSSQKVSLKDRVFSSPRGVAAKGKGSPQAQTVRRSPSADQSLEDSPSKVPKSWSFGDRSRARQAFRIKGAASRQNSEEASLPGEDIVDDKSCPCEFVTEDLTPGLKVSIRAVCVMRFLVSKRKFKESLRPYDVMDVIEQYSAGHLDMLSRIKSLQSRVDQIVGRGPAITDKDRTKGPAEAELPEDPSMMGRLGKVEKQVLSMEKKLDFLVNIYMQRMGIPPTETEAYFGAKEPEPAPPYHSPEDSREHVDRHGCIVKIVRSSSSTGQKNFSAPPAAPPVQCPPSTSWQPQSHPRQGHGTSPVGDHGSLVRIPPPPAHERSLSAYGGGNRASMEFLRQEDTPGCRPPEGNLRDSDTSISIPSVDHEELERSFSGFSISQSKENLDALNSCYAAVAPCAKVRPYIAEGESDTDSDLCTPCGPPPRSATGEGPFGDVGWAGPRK
T1 sequence (O43525 whole entry): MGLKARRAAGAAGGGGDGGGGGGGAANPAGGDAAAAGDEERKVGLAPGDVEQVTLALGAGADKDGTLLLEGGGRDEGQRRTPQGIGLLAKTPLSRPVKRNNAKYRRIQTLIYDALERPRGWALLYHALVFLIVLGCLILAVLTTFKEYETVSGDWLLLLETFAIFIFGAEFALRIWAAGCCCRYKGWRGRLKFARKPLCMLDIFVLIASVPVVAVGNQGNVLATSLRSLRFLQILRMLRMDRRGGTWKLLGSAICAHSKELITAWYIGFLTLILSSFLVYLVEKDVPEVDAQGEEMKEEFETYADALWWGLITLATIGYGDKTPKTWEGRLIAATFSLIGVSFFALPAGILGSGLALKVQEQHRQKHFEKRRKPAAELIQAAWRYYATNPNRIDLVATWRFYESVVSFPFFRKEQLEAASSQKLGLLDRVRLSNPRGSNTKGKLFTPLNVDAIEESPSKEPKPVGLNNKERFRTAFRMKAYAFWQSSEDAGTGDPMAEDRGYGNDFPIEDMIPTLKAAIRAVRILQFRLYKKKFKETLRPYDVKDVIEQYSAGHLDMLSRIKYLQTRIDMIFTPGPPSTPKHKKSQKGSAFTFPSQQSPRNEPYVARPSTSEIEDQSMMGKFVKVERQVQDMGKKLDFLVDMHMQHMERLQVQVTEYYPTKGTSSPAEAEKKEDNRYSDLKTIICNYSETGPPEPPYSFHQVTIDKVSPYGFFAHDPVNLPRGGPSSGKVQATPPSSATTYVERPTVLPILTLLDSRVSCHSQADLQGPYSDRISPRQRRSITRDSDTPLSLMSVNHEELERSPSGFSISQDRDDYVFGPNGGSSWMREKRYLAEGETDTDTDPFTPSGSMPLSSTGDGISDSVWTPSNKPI

**Q.** `O=C(Cc1cc([N+](=O)[O-])ccc1Nc1c(Cl)cccc1Cl)OCCO` [Compound 15] was tested. Which “left-shift of Kv7.2/3 activation curve” value ([1]; 10 µM) did it give?
**A.** −11 mV

**Q.** What about the “V50 of Kv7.2/3 activation” value ([1]; 10 µM) of the same compound?
**A.** −43.6±9.0 mV

**Q.** What about the “fold increase in Kv7.2/3 current amplitude” value ([1]; 10 µM) of the same compound?
**A.** 3.2 fold

**Q.** And the “activation kinetics t1/2 of Kv7.2/3” value ([1]; 25 µM, at −20 mV)?
**A.** 0.171 ± 0.029 s

**Q.** And the “deactivation time constant τdeact of Kv7.2/3” value ([1]; 25 µM, tail currents at −60 mV)?
**A.** 284 ± 43 ms

**Q.** And the “left-shift of Kv7.2/3 activation curve” value ([1]; 50 µM)?
**A.** −21 mV

**Q.** What about the “V50 of Kv7.2/3 activation” value ([1]; 50 µM) of the same compound?
**A.** −53.5±9.3 mV

**Q.** What about the “fold increase in Kv7.2/3 current amplitude” value ([1]; 50 µM) of the same compound?
**A.** 9.1 fold

**Q.** What about the “left-shift of Kv7.2/3 activation curve” value ([1]; 200 µM) of the same compound?
**A.** −31 mV

**Q.** What about the “V50 of Kv7.2/3 activation” value ([1]; 200 µM) of the same compound?
**A.** −63.1±2.0 mV

**Q.** And the “ΔV50 (mV), left-shift in half-activation potential” value ([1]; Kv7.2/3 in CHO cells)?
**A.** −31.0 mV

**Q.** And the “M-channels (Kv7.2/Kv7.3) effect (opener / blocker / inactive)” value ([1]; Kv7.2 and Kv7.3 coexpressed in CHO cells)?
**A.** opener

**Q.** And the EC50 ([1]; concentration-dependent left-shift ΔV50, sigmoidal fit, read-out: M-channel opener potency EC50)?
**A.** 22 µM

**Q.** And the “hyperpolarization of resting membrane potential, DRG neurons” value [2]?
**A.** −8.3±0.2 mV

**Q.** And the “resting membrane potential of DRG neurons after exposure” value [2]?
**A.** −69.0±0.3 mV

**Q.** What about the “rheobase current to generate a single spike, DRG neurons” value ([2]; 2 ms injection) of the same compound?
**A.** 577±38 pA

**Q.** And the “number of evoked action potentials, DRG neurons” value ([2]; depolarizing current for 400 ms)?
**A.** 0.8±0.3

**Q.** What about the ED50 [3] of the same compound?
**A.** 12 mg/kg
